Data as given in US6500936B2, “Pluraflavins and derivatives thereof, process for their preparation and use thereof” (priority 2000, dated 2002).
Values joined by “and” are separate entries in the source; they are usually repeats but may differ in a detail not shown here. Equal values may be shown once. Read-outs that look alike come from different tables or passages of the source.

Legend:
Colon tumor cell line = test: MTT antiproliferation assay, colon tumor cells; format: cell-based
Text: (§1) MTT, a water soluble tetrazolium salt, is converted to an insoluble purple formazan when dissolved by cleavage of the tetrazolium ring by dehydrogenase enzymes in active mitochondria. […] This method was used to quantitate proliferation in order to determine activity of potential chemotherapeutic compounds.
(§2) All cells were maintained in RPMI 1640 (Life Technologies, Gaithersburg, Mdi) containing 10% heat-inactivated Fetal Bovine Serum, penicillin /streptomycin and supplemented with L-glutamine.
(§3) Cells were plated in 96-well tissue culture plates at the following densities:
(§4) Cells were allowed to adhere overnight at 37° C., 5% CO2.
(§5) The cells were washed with fresh media and the compounds added to the cells in a final volume of 100 μl. The cells plus compound were allowed to incubate at 37° C., 5% CO2 for approximately 72 hours.
(§6) At the desired time point, 25 μl of MTT (10 mg/ml in HBSS) were added to each well. Plates were incubated at 37° C. for 2-4 hours. MTT and media were removed and 200 μl DMSO were added per well. Readings were taken at 570 nm.

Lung tumor cell line = test: MTT antiproliferation assay, lung tumor cells; format: cell-based
Text: as §1, §2, §3, §4, §5, §6

Prostate tumor cell line = test: MTT antiproliferation assay, prostate tumor cells; format: cell-based
Text: as §1, §2, §3, §4, §5, §6

leukemia cells = test: Soft agar assay against leukemia cells; format: cell-based
Breast tumor cell line = test: MTT antiproliferation assay, breast tumor cells; format: cell-based
Text: as §1, §2, §3, §4, §5, §6

[1] = Chemical stability by medium / pH
[2] = test system: rat hepatoma cells ATCC CRL-1548; test: Cytostatic activity on rat hepatoma cells (Cell Titer 96 Aqueous); format: cell-based; details: read-out: IC50 (cytostatic effect)
Protocol: (a) To determine the cytostatic activity, rat hepatoma cells were used which were obtained from the strain collection American Type Culture Collection under the number ATCC CRL-1548, Jo No.223 and 228 The strain was kept in the “MEM (EAGLE) with Glutamax” medium [GIBCO BRL No.4109-028] with 10% fetal calf serum [GIBCO BRL No. 10270-106] and 10 μl of penicillin-streptomycin [GIBCO BRL No. 15140-114]/ml. 96-well microtiterplates [Greiner, No. 15140-114] were used. Each well was initially charged with 140 μl of culturing nutrient solution and in each case inoculated with 215,000 cells. The plates were then incubated at 37° C. and 5% CO2 for 20-24 hours. A dilution series of pluraflavins with concentrations of 100, 50, 25, 12.5, 6.25, 3.125, 1.5625, 0.7813, 0.3906, 0.195, 0.094, 0.047 and 0 μM, which had been prepared beforehand, was then pipetted in the corresponding order. After a further incubation time of 22 hours at 37° C. in an atmosphere of 5% CO2, the liquid medium was then aspirated. The cells that remained were stained with 100 μl of RPMI 1640 [GIBCO BRL No. 32404-014]/well and 20 μl of Cell Titer 96 Aqueous [PROMEGA No. G5430]/well. Light absorption at 590 nm was measured directly after addition and after 2 hours of incubation, as above. The cytostatic effect was calculated from the change in light absorption.

[3] = Solubility (appearance description)

| IC50 (Colon tumor cell line; Colon cells, MTT, approximately 72 hours, read-out: IC50) [nM] | IC50 (Lung tumor cell line; Lung cells, MTT, approximately 72 hours, read-out: IC50) [nM] | IC50 (Prostate tumor cell line; Prostate cells, MTT, approximately 72 hours, read-out: IC50) [nM] | IC50 (leukemia cells; soft agar assay, leukemia cells, read-out: IC50) | IC50 (Breast tumor cell line; Breast cells, MTT, approximately 72 hours, read-out: IC50) [nM] | SMILES | IC50 (Colon tumor cell line; 72 h) [nM] | IC50 (Lung tumor cell line; 72 h) [nM] | IC50 (Prostate tumor cell line; 72 h) [nM] | IC50 (leukemia cells) [nM] | IC50 (Breast tumor cell line; 72 h) [nM] | stability in the alkaline range [1] | stability in neutral and mildly acidic medium [1] | stability in the strongly acidic range [1] | IC50 ([2]; Rattus norvegicus, 22 h) [nM] | IC50 ([2]; rat hepatoma cells, 22 hours incubation) [nM] | solubility in polar organic solvents [3] | solubility in water [3] |
| --- | --- | --- | --- | --- | --- | --- | --- | --- | --- | --- | --- | --- | --- | --- | --- | --- | --- |
| 30 | 90 | 80 | 500 nM and 600 nM | 90 | CN1CC[C@H](c2c(O)cc(O)c3c(=O)cc(-c4ccccc4Cl)oc23)[C@H](O)C1 [flavopiridol, reference compound] |  |  |  |  |  |  |  |  |  |  |  |  |
|  |  |  |  |  | CC1OC(OC2C(C)OC(c3ccc4c(c3O)C(=O)c3c(cc(COC5CC(C)(N)C(O)C(C)O5)c5c(=O)cc(C6(C)OC6C)oc35)C4=O)CC2N(C)C)CC(O)C1O (stereo not drawn) [pluraflavin A] | 0.35 | 3 | 10 | 60 | < 23 | unstable | stable | unstable | < 50 |  |  |  |
|  |  |  |  |  | CC1OC(OC2C(C)OC(c3ccc4c(c3O)C(=O)c3c(cc(COC5CC(C)(N)C(O)C(C)O5)c5c(=O)cc(C(C)(O)C(C)O)oc35)C4=O)CC2N(C)C)CC(O)C1O (stereo not drawn) [pluraflavin B] |  |  |  |  |  | unstable | stable |  |  | < 50 | soluble | only sparingly soluble |
|  |  |  |  |  | CC1OC(OC2C(C)OC(c3ccc4c(c3O)C(=O)c3c(cc(C(=O)O)c5c(=O)cc(C(C)(O)C(C)O)oc35)C4=O)CC2N(C)C)CC(O)C1O (stereo not drawn) [pluraflavin E] |  |  |  |  |  | unstable | stable | unstable |  |  | soluble | only sparingly soluble |
